Measured values taken from patent US10406185B2, “Cancer therapy with a parvovirus combined with a BCL-2 inhibitor” (DEUTSCHES KREBSFORSCHUNGSZENTRUM, priority 2013, dated 2019).

Columns and labels:
U138 = assay: LDH assay (cell lysis), U138; type: cell-based, human; details: U138, H-1PV at MOI 5, 0.5 μM inhibitor, 72 h
Experimental: 72 hours after infection, percentage of cells undergoing lysis was measured by LDH assay.

[1] = system: human hematologic tumour xenograft; details: several human hematologic tumour xenograft models; cited from earlier work
human platelets = details: in contrast to ABT-737; cited from earlier work
[2] = system: U373, U138, U343 and NCH125 glioma cell lines; assay: Mitochondrial membrane permeabilization (MitoTracker Red), four glioma cell lines; type: cell-based, human; details: ABT-737 0.5-1 μM or H-1PV MOI 2.5-7.5 alone, 48-96 h
Experimental: 48-96 hours after infection, cells were stained with Mitotracker Red, harvested and analyzed by flow cytometry. The percentage of cells with MMP, was determined using the CellQuest Software. In the upper panel representative histogram plots are shown for each condition. In the lower panel the results of a typical experiment performed in triplicates are shown. Columns represent the mean values with relative standard deviation bars.
The fluorescent dye MitoTracker® Red CMXRos (Molecular Probes, Invitrogen, Darmstadt, Germany) that stains mitochondria in live cells was used to measure the change in MMP. Due to the formation of pores in the mitochondrial membrane, apoptotic cells cannot retain the dye and show a lower fluorescent signal in flow cytometry analysis.
Glioma cells were seeded in 6-well plates at the density of 2.5×10^5 cells/well in 3 ml of cultural medium with the exception of NCH125 cells that were seeded at the density of 6.25×10^4 cells/well. […] Cell suspension was analyzed with a FACSCalibur (BD Biosciences). At least 10,000 events were acquired and analyzed with the CellQuest Software (BD Biosciences). The average of cells undergoing MMP was calculated from three replicates.

AsPC-1 xenografts = details: nude rats, treated animals
Experimental: 5×10^6 AsPC-1 cells were subcutaneously injected in the right flank of 5 week-old female nude rats. After 1 week (when tumour reached the volume of 200-400 mm^3), tumour-bearing animals were randomized in to four groups (n=8). […] Tumour volume was measured with a digital calliper on the days indicated and calculated according to the formula: volume […]=width^2× length/2. Rats were sacrificed when the tumour mass reached 4000 mm^3, in keeping with animal welfare regulations. Data shown represents the average values with standard deviation bars.

human glioma cell lines [3] = details: ABT-737 alone at the dosages of Table 1, 72 h, all glioma lines except U87
Experimental: (§1) LDH assays. […] 72 hours after infection, cell lysis was analyzed by LDH assay as described in the materials and methods section. Columns represent the mean values from 3 replicates with relative standard deviation bars.
(§2) H-1PV cytotoxicity was evaluated by quantification of the enzyme lactate dehydrogenase (LDH), which is released from cells due to loss of membrane integrity (lysis). The assay was performed using the CytoTox 96® Non-Radioactive Cytotoxicity Assay Kit according to the manufacturer's instructions (Promega, Heidelberg, Germany).
(§3) Cells were seeded into 96-well plates usually at the density of 4,000 cells/well in 50 μl of their respective culture media supplemented with 10% FBS. […]
(§4) Briefly, 10 μl of 10× lysis buffer [9% (v/v) Triton X-100 (AppliChem, Darmstadt, Germany) in phosphate buffered saline (PBS)] were added per well in three lines of the plate, which served as 100% cell lysis control. […] The absorbance was measured at a wavelength of 492 nm using the Multiscan ELISA Reader. […] For each condition we calculated the average of the three wells incubated (A) or not (B) with lysis buffer. The average value measured in the wells without cells (background) was subtracted from the values obtained in the wells with the cells.

U87 = assay: LDH assay (cell lysis), U87; type: cell-based, human; details: U87, ABT-737 alone 5 μM, 72 h
Experimental: as §1, §2, §3, §4

[4] = system: peripheral blood mononuclear cells (PBMCs); details: non malignant PBMCs; read-out: half maximal effective concentration (EC50); cited from earlier work
human glioma cell lines [5] = assay: Sub-G1 apoptotic population by flow cytometry, eight glioma cell lines; type: cell-based; details: H-1PV MOI 0.5-7.5 or 0.25-5 μM ABT-737 alone, 48-96 h
Experimental: The occurrence of DNA fragmentation (sub-G1 cell population) in response to treatment was assessed by propidium iodide staining and flow cytometry in eight human glioma cell lines (a-h). […] Representative histogram plots are shown in the upper panel. […] Columns represent the mean values with relative standard deviation bars (lower panel).
Propidium iodide staining was performed, in order to detect apoptotic cells after treatment. The dye intercalates in the DNA, where it can be measured by flow cytometry. The fluorescence emission is proportional to the DNA content in the cells. Apoptotic cells are characterized by nuclear DNA fragmentation and can be identified by lower fluorescence emission (sub-G1 apoptotic cell population) (Riccardi & Nicoletti, 2006). […]
After 48 (U251, U138, A172, U87, NCH125), 72 (U373) or 96 (U343, NCH37) hours, from infection, supernatant and cells (harvested by trypsinization) were collected and washed with PBS. […] The cell suspension was filtered in a nylon net, and measured on a FACSCalibur (BD Biosciences, San Jose, Calif.). A minimum of 20,000 events were acquired and analyzed with the CellQuest Software (BD Biosciences). Propidium iodide was detected in the FL-2 channel. Untreated cells were used to set the gate for the apoptotic cell fraction, as they show the fluorescence emission of viable non-apoptotic cells. […]

[6] = system: small-cell lung carcinoma; details: small-cell lung carcinoma xenograft mouse models; cited from earlier work

SMILES | increase of H-1PV cytotoxicity in comparison to virus alone (U138) [fold] | tumor growth [1] | effect on human platelets (human platelets) | effect on MMP, single treatments [2] | loss of weight or other adverse side effects (AsPC-1 xenografts) | cytotoxicity of ABT-737 alone (human glioma cell lines [3]) | cytotoxicity of ABT-737 alone (U87) | EC50 [4] [nM] | induction of apoptosis (sub-G1 population), single treatments (human glioma cell lines [5]) | tumour regression [6]
CC1(C)CCC(CN2CCN(c3ccc(C(=O)NS(=O)(=O)c4ccc(NCC5CCOCC5)c([N+](=O)[O-])c4)c(Oc4cnc5[nH]ccc5c4)c3)CC2)=C(c2ccc(Cl)cc2)C1 [ABT-199] | 1.7 | inhibit tumor growth | spares human platelets | – | – | – | – | – | – | –
CN(C)CC[C@H](CSc1ccccc1)Nc1ccc(S(=O)(=O)NC(=O)c2ccc(N3CCN(Cc4ccccc4-c4ccc(Cl)cc4)CC3)cc2)cc1[N+](=O)[O-] [ABT-737] | 3.8 | – | – | almost no effect on the MMP | No loss of weight or other adverse side effects | no apparent cytotoxicity | modestcytotoxic effects | > 1000 | unable to induce apoptosis efficiently | complete regression
